Laboratory results: patent US9428466B2, “Methods for reducing uric acid levels using barbiturate derivatives” (priority 2013, dated 2016)
Where two headings read alike, the source gives them in different places.

Assays:
URAT1 (SLC22A12) = URAT1 (SLC22A12) (Homo sapiens (Human), UniProt Q96S37); assay: URAT1 cellular uptake assay (3H-orotate transport, stably transfected URAT-1/CHO cells); type: cell-based; conditions: 3H-orotate uptake, 7 concentrations 0.01 to 150 μM, read-out: URAT1 IC50 (μM ± SEM)
URAT1 (SLC22A12), sequence (Q96S37 whole entry): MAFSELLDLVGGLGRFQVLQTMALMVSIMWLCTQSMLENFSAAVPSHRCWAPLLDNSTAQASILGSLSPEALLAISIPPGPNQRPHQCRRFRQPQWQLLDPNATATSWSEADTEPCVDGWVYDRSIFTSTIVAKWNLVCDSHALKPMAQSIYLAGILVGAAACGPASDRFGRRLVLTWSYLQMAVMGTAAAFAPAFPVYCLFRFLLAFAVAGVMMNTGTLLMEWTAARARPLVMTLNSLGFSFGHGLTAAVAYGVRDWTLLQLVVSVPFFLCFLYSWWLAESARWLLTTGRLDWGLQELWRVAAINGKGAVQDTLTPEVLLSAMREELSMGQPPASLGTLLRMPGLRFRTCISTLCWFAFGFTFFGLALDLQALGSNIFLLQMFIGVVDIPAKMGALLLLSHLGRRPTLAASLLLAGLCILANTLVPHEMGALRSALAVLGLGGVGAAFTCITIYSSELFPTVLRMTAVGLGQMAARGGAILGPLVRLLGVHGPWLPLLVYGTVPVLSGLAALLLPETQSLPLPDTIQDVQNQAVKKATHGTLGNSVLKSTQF
Method: URAT1 (SLC22A12) activity was evaluated in a cellular uptake assay using a 96-well plate with stably transfected URAT-1/CHO cells. ^3H-orotate was used as the test transport agent, which was measured in a liquid scintillation counter, using benzbromarone as a positive control, and DMSO and non-transfected CHO cells as negative controls (Solvo Biotechnology, Boston, Mass.).

xanthine oxidase [1] = target: T1, xanthine oxidase (Homo sapiens (Human), UniProt P47989); assay: Fluorescence-based xanthine oxidase activity assay; type: biochemical; conditions: triplicate, 10 concentrations
T1 sequence (P47989 whole entry, species assumed): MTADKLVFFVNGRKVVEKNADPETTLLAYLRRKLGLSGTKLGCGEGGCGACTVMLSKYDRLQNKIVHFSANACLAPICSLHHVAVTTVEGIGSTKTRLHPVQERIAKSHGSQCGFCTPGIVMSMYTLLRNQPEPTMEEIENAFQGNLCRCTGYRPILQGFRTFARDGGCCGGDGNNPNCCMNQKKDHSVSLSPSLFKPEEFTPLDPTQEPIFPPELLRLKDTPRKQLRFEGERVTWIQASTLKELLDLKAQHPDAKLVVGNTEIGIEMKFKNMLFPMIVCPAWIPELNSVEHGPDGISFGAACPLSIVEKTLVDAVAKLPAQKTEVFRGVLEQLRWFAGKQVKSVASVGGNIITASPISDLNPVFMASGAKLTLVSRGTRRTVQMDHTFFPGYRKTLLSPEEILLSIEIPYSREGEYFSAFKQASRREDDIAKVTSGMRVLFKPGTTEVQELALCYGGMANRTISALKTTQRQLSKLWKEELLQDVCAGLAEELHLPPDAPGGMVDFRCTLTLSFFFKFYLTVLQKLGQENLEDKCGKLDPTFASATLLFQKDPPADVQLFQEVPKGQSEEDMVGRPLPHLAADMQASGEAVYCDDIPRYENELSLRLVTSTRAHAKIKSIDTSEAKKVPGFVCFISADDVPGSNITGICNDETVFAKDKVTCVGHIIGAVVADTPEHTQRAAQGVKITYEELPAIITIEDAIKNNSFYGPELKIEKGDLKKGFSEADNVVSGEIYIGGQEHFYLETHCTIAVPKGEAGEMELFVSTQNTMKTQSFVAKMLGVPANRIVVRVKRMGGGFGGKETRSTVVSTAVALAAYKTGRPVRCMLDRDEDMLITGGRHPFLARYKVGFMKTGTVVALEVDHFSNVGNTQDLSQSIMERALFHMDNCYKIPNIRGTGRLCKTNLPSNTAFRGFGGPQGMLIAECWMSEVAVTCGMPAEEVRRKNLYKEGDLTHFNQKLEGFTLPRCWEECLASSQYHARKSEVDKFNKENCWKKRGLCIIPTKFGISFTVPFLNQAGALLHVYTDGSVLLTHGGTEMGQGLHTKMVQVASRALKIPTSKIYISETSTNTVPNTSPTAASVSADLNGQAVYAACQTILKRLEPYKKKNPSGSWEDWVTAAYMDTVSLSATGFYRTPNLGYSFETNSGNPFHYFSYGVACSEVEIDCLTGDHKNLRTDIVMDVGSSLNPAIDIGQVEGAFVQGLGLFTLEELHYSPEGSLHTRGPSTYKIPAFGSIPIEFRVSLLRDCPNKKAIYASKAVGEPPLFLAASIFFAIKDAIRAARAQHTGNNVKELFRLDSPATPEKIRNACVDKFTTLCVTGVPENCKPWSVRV
Method: Xanthine oxidase inhibition was determined using a standard fluorescence-based assay for xanthine oxidase activity (McHale A, Grimes H, Coughlan M P: Int J Biochem. 10:317-9, 1979) with minor variations. […] Experiments on test compounds were performed in triplicate in multi-well plates using 10 concentrations of each compound that ranged over a 3-fold dilution.

CHO-K1 cells = assay: In vitro mouse micronucleus assay (a test for cytotoxicity); type: cell-based; conditions: 24 hr without S9 and 4 hr with S9, 62 μM-1000 μM
Method: The in vitro mouse micronucleus assay was conducted in CHO-K1 cells seeded in 96-well plates and treated with test compounds for 24 hr (without S9) and for 4 hr (with S9). Cytochalasin B was added after 24 hr, and the cells were incubated for an additional 24 hr, after which the cells were fixed and scored for micronuclei. The assay was run using 6 concentrations in duplicate (62 μM-1000 μM), and data for the highest 5 concentrations that were not cytotoxic were reported. Cellular nuclei and micronuclei were stained, and an automated fluorescent microscopic detection system was used to score micronuclei in approximately 2,000 bi-nucleated cells per concentration.

xanthine oxidase [2] = target: T1, xanthine oxidase; conditions: data taken from publications; cited from earlier work

Structure (SMILES) | IC50 (URAT1 (SLC22A12)) [µM] | IC50 (xanthine oxidase [1]) [nM] | Mouse Micronucleus (CHO-K1 cells) | IC50 (xanthine oxidase [2]) [µM]
O=C1NC(=S)NC(=O)C1C(=O)Nc1ccccc1 [Merbarone, 5-(N-phenylcarboxamido)-2-thio-barbituric acid, reference compound] | 5.4 ± 1 | 274000 | Positive | –
O=C(Nc1ccc(O)cc1)c1c(O)[nH]c(=O)[nH]c1=O [4′-hydroxy-2-oxo-desthiomerbarone, 1,2,3,4-tetrahydro-6-hydroxy-2,4-dioxo-N-(4′-hydroxyphenyl)-5-pyrimidinecarboxamide] | 2.6 ± 0.6 | 1060 | Negative | –
O=C(Nc1ccccc1)c1c(O)[nH]c(=O)[nH]c1=O [2-oxo-desthiomerbarone, 1,2,3,4-tetrahydro-6-hydroxy-2,4-dioxo-N-phenyl-5-pyrimidinecarboxamide] | 1.2 | > 300000 | Positive | –
O=C(Nc1ccc(O)cc1)c1c(O)[nH]c(=S)[nH]c1=O [4′-hydroxymerbarone, 1,2,3,4-tetrahydro-6-hydroxy-2-thioxo-4-oxo-N-(4′-hydroxyphenyl)-5-pyrimidinecarboxamide] | 9.4 ± 0.6 | 680 | Negative | –
O=C(O)CSc1nnc(Br)n1-c1ccc(C2CC2)c2ccccc12 [Lesinurad, lesinurad] | – | – | – | > 300
